In PMC3103600 (Journal of natural products, 2011):
Read-outs that look alike come from different tables or passages of the source.

What was measured:
[1] = biological target: native luciferase (Photinus pyralis, UniProt P08659); experiment: Counter-screen against native luciferase; type: biochemical, firefly
[2] = test system: Her2, Akt, Raf-1, Hsp70, Hsp90 in MCF7 cells; experiment: Western blot of Hsp90 client proteins and heat shock proteins, MCF7; type: cell-based; details: MCF7, 36 h
[3] = test system: Her2, Akt, Raf-1, Hsp70, Hsp90 in Sk-Br3 cells; experiment: Western blot of Hsp90 client proteins and heat shock proteins, SkBr3; type: cell-based; details: Sk-Br3, 36 h
[4] = test system: Hsp90, Hsp70 and Cdc37 with HRI/K199R; type: biochemical; details: low ionic strength wash
[5] = biological target: full length Hsp90 (human Hsp90β) (Homo sapiens, UniProt P08238); experiment: SPR binding to full length Hsp90; details: full length Hsp90, 25 °C
Sequence of full length Hsp90 (human Hsp90β) (P08238 whole entry, the tested form may be a part): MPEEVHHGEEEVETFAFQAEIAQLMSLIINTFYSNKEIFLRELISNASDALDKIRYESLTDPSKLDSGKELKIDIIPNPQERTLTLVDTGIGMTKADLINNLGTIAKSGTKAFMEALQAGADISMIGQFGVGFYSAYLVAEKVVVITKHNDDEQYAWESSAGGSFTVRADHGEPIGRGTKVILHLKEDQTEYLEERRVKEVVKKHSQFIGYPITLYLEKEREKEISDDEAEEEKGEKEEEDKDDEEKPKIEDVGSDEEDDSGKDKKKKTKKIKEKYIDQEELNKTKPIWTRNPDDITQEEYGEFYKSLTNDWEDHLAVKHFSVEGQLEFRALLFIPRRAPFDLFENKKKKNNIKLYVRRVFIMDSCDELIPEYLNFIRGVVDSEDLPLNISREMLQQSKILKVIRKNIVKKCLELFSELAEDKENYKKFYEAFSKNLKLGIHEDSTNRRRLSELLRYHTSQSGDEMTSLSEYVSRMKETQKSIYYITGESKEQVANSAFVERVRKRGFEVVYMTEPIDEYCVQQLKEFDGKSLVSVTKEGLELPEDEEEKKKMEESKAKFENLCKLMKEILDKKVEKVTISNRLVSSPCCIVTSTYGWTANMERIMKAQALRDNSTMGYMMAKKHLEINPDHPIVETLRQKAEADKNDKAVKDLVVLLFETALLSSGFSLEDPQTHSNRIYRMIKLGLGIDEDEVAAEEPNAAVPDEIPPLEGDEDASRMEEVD

[6] = biological target: Hsp90NT (N-terminal domain of Hsp90α, amino acids 1–241) (Homo sapiens, UniProt P07900); experiment: SPR binding to N-terminal domain of Hsp90
[7] = biological target: Hsp90CT (C-terminal domain of Hsp90, amino acids 531–732) (Homo sapiens, UniProt P07900); experiment: SPR binding to C-terminal domain of Hsp90
[8] = test system: heme-regulated eIF2α kinase (HRI); experiment: Hsp90-dependent HRI maturation/activation in heme-deficient reticulocyte lysate; details: 45 min
[9] = test system: heme-regulated eIF2α kinase (HRI); experiment: Stability of [35S]HRI in reticulocyte lysate; type: biochemical; details: 45 min, heme-deficient lysate

Sequence of native luciferase (P08659 whole entry): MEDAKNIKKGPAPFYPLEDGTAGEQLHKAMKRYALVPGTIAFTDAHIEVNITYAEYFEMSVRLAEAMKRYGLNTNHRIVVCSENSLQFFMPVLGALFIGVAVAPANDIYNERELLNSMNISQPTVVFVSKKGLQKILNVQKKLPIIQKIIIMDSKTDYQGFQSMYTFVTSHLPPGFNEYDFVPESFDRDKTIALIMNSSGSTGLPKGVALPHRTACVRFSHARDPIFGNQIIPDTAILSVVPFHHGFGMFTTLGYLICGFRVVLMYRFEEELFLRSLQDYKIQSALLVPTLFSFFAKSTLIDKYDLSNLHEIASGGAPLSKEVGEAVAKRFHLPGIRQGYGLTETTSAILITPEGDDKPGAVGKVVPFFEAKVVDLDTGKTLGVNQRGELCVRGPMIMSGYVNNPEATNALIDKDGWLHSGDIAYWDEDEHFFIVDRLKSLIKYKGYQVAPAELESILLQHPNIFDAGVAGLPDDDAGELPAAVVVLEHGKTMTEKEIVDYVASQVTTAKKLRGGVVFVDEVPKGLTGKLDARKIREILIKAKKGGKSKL

CC(C)=CCC[C@]1(C)C=Cc2c(O)c3c(c(CC=C(C)C)c2O1)O[C@]12C(=C[C@@H]4C[C@H]1C(C)(C)O[C@@]2(C/C=C(/C)C(=O)O)C4=O)C3=O [Compound 1, (−)-gambogic acid]
direct effect on the activity of native luciferase [1]: Neither celastrol nor 1 had any direct effect
depletion of Hsp90-dependent proteins Her2, Akt, Raf-1 [2]: deplete MCF7 and Sk-Br3 cells of Her2, Akt and Raf-1 in a concentration dependent fashion
induction of Hsp90 and Hsp70 expression [2]: induced Hsp90 and Hsp70 expression
depletion of Hsp90-dependent proteins Her2, Akt, Raf-1 [3]: deplete MCF7 and Sk-Br3 cells of Her2, Akt and Raf-1 in a concentration dependent fashion
induction of Hsp90 and Hsp70 expression [3]: induced Hsp90 and Hsp70 expression
effect on binding of Hsp90, Hsp70, Cdc37 to HRI/K199R ([4]; 50 µM): disrupted the binding of Hsp90, Hsp70, and Cdc37 to HRI
kd [5]: 0.0113(4) S^−1
kd ([6]; 25 °C): 0.01122(7) S^−1
kd ([6]; +20 µM GA in analyte buffer): 0.0114(7) S^−1
KD [7]: no binding
ka [7]: no binding
kd [7]: no binding
effect on HRI maturation/activation ([8]; 50 µM): inhibited the maturation/ activation of HRI

CC1=C(O)C(=O)C=C2C1=CC=C1[C@@]2(C)CC[C@@]2(C)[C@@H]3C[C@](C)(C(=O)O)CC[C@]3(C)CC[C@]12C [Compound 2, celastrol]
direct effect on the activity of native luciferase [1]: Neither celastrol nor 1 had any direct effect
effect on binding of Hsp90, Hsp70, Cdc37 to HRI/K199R ([4]; 100 µM): disrupted the binding of Hsp90, Hsp70, and Cdc37 to HRI
effect on HRI maturation/activation ([8]; 100 µM): inhibited the maturation/ activation of HRI

COC1=C2C[C@@H](C)C[C@H](OC)[C@H](O)[C@@H](C)/C=C(\C)[C@H](OC(N)=O)[C@@H](OC)/C=C\C=C(/C)C(=O)NC(=CC1=O)C2=O [Compound 3, geldanamycin]
loss of [35S]HRI compared to the DMSO control ([9]; 80 µM): 0%
effect on HRI maturation/activation ([8]; 80 µM): inhibited the maturation/ activation of HRI

CO[C@@H]1[C@@H](OC(N)=O)[C@@H](O)[C@H](Oc2ccc3c(O)c(NC(=O)c4ccc(O)c(CC=C(C)C)c4)c(=O)oc3c2C)OC1(C)C [Compound 4, novobiocin]
effect on binding of Hsp90, Hsp70, Cdc37 to HRI/K199R ([4]; 4.0 mM): disrupted the interaction of Hsp90, Hsp70 and Cdc37 with HRI/K199R
effect on HRI maturation/activation ([8]; 4.0 mM): also inhibited the maturation/ activation of HRI

CO[C@H]1[C@H](OC(=O)c2ccc(C)[nH]2)[C@H](O)[C@@H](Oc2ccc3c(O)c(NC(=O)c4c[nH]c(C(=O)Nc5c(O)c6ccc(O[C@H]7OC(C)(C)[C@@H](OC)[C@H](OC(=O)c8ccc(C)[nH]8)[C@@H]7O)c(C)c6oc5=O)c4C)c(=O)oc3c2C)OC1(C)C [Compound 5, coumermycin A1]
effect on binding of Hsp90, Hsp70, Cdc37 to HRI/K199R ([4]; 400 µM): disrupted the interaction of Hsp90, Hsp70 and Cdc37 with HRI/K199R
effect on HRI maturation/activation ([8]; 400 µM): also inhibited the maturation/ activation of HRI

[Na+].[Na+].[O]=[Mo](=[O])([O-])[O-] [molybdate, sodium molybdate]
effect on binding of Hsp90, Hsp70, Cdc37 to HRI/K199R ([4]; 20 mM): stabilized the binding of Hsp90 and Cdc37 to HRI/K199R, while not affecting the interaction of Hsp70 with HRI/K199R
loss of [35S]HRI compared to the DMSO control ([9]; 20 mM): 10%
effect on HRI maturation/activation ([8]; 20 mM): inhibited the maturation/ activation of HRI
